What was measured:
[1] = test system: Salmonellae; assay: Salmonellae log reduction in pot pie filling by 4-HBITC only (frozen filling thawed to room temperature, plate count); type: cell-based
Text: (§1) Pot pie fillings made up of both Salmonellae inoculated particulates and gravy carrying the 4-hydroxybenzyl isothiocyanate (4-HBITC) in white mustard essential oil (WMEO), is used to evaluate the effect of 4-HBITC in a heterogeneous food system. Standing overnight cultures of five strains of Salmonellae are used to inoculate, at two different levels, mixtures of frozen vegetable and chicken particulates containing about 62% chicken, 17% carrot, 15% potato and 2% peas, as described in Example 2, all by weight of the total particulate mixture. The high level contains about 6 log colony forming units (cfu)/gm while the medium level contains about 3 log cfu/gm of Salmonellae. Bags containing the inoculated cultures and the particulates are gently inverted and rolled to ensure uniform coating of the particulates and the inoculated particles are then stored at −28° C. for 24 hours before being mixed with sauce containing white mustard essential oil (WMEO).
(§2) Sauce as made in Example 2 is used as the vehicle for WMEO. From a 2.4% 4-HBITC in WMEO stock solution in peanut oil made as described in Example 1, accurate amounts are weighed out such that 400 g of the pie filling comprising 36% of the particulates and 64% of the gravy will have 750, 562.5 or 250 ppm, 4-HBITC when mixed together. The particulates and the sauce are first put together in a sterile bowl and the WMEO in peanut oil added to the mixture and mixed gently for about 1 minute. The control (0 ppm 4-HBITC samples have only the vegetable oil added to them before mixing. The completed pie fillings are then immediately frozen at −28° C. for 48 hours before the second stage of the experiment.
(§3) To enumerate the accurate Salmonellae count prior to freezing, a sample is removed from each of the mixed pie fillings, including the control, and diluted at a ratio of 1:10 with Butterfields buffer and homogenized using a stomacher. The homogenized and diluted sample is suitably diluted further to obtain the appropriate number of bacterial colonies per plate and plated in triplicate on trypticase soy agar with yeast extract and allowed to stabilize for 30-60 minutes. The plates are then over-laid with xyline-lysine-deoxycholate (XLD) agar to resuscitate and recover injured cells and incubated at 35° C. for 48 hours before counting the colonies.
(§4) In the second stage of the experiment, the frozen pie fillings are cooked in 700 W or 1100 W microwave ovens. During cooking, samples are removed from the pie fillings at 15, 45, 60, 90 120, 180 and 240 seconds. At each of these time points, the surviving microbial counts are enumerated by removing discrete 25 g samples and plating them in the manner described above. To determine the effect of 4-HBITC only, each of the treatments and the control is thawed to room temperature and triplicate samples are used to enumerate the surviving microorganisms as detailed above.
(§5) The microbial reductions resulting from the treatments is attributed to the simultaneous action of microwave heating and 4-HBITC while microbial reductions occurring in the 0 ppm 4-HBITC containing control sample is attributed to microwave heating only. If the reduction in microbial counts due to the simultaneous action of 4-HBITC and microwave heating is greater than the sum of the individual reductions in microbial counts due to 4-HBITC and microwave heating, a synergistic effect is considered to be present (YES). If the reduction in microbial counts due to the simultaneous action of 4-HBITC and microwave heating is equal to or less than the sum of the individual reductions in microbial counts due to 4-HBITC and due to microwave heating, a synergistic effect is considered to be absent (NO).

[2] = test system: Salmonellae; assay: Salmonellae log reduction in frozen pot pie filling containing 4-HBITC cooked in a microwave oven (plate count); type: cell-based; design: key to Synergistic effect Yes/No: Yes: reduction in microbial counts due to the simultaneous action of 4-HBITC and microwave heating is greater than the sum of the individual reductions in microbial counts due to 4-HBITC and microwave heating, a synergistic effect is considered to be present (YES); No: reduction in microbial counts due to the simultaneous action of 4-HBITC and microwave heating is equal to or less than the sum of the individual reductions in microbial counts due to 4-HBITC and due to microwave heating, a synergistic effect is considered to be absent (NO); details: for Synergistic effect Yes/No: 180 sec
Text: as §1, §2, §3, §4, §5

[3] = 250 ppm 4-HBITC, inoc. level H, MW power 700 Watts
[4] = 250 ppm 4-HBITC, inoc. level H, MW power 1100 Watts
[5] = 250 ppm 4-HBITC, inoc. level M, MW power 700 Watts
[6] = 250 ppm 4-HBITC, inoc. level M, MW power 1100 Watts
[7] = 562.5 ppm 4-HBITC, inoc. level H, MW power 700 Watts
[8] = 562.5 ppm 4-HBITC, inoc. level H, MW power 1100 Watts
[9] = 562.5 ppm 4-HBITC, inoc. level M, MW power 700 Watts
[10] = 562.5 ppm 4-HBITC, inoc. level M, MW power 1100 Watts
[11] = 750 ppm 4-HBITC, inoc. level H, MW power 700 Watts
[12] = 750 ppm 4-HBITC, inoc. level H, MW power 1100 Watts
[13] = 750 ppm 4-HBITC, inoc. level M, MW power 700 Watts
[14] = 750 ppm 4-HBITC, inoc. level M, MW power 1100 Watts

**Q.** Which results are given for `Oc1ccc(CN=C=S)cc1` [4-HBITC, 4-hydroxybenzyl isothiocyanate]?
**A.** log reductions (180 sec) due to 4-HBITC only [1, 3]: 0.74 log; log reductions (180 sec) due to 4-HBITC only [1, 4]: 1.05 log; log reductions (180 sec) due to 4-HBITC only [1, 5]: 1.15 log; log reductions (180 sec) due to 4-HBITC only [1, 6]: 1.1 log; log reductions (180 sec) due to 4-HBITC only [1, 7]: 1.59 log; log reductions (180 sec) due to 4-HBITC only [1, 8]: 1.59 log; log reductions (180 sec) due to 4-HBITC only [1, 9]: 2.4 log; log reductions (180 sec) due to 4-HBITC only [1, 10]: 2.4 log; log reductions (180 sec) due to 4-HBITC only [1, 11]: 2.03 log; log reductions (180 sec) due to 4-HBITC only [1, 12]: 2.14 log; log reductions (180 sec) due to 4-HBITC only [1, 13]: 2.4 log; log reductions (180 sec) due to 4-HBITC only [1, 14]: 2.64 log; log reductions (180 sec) due to Simultaneous action of 4-HBITC & heat [2, 3]: 1.11 log; Synergistic effect Yes/No [2, 3]: No; log reductions (180 sec) due to Simultaneous action of 4-HBITC & heat [2, 4]: 1.63 log; Synergistic effect Yes/No [2, 4]: Yes; log reductions (180 sec) due to Simultaneous action of 4-HBITC & heat [2, 5]: 1.42 log; Synergistic effect Yes/No [2, 5]: No; log reductions (180 sec) due to Simultaneous action of 4-HBITC & heat [2, 6]: 1.38 log; Synergistic effect Yes/No [2, 6]: No; log reductions (180 sec) due to Simultaneous action of 4-HBITC & heat [2, 7]: 2.97 log; Synergistic effect Yes/No [2, 7]: Yes; log reductions (180 sec) due to Simultaneous action of 4-HBITC & heat [2, 8]: 5.25 log; Synergistic effect Yes/No [2, 8]: Yes; log reductions (180 sec) due to Simultaneous action of 4-HBITC & heat [2, 9]: 4.38 log; Synergistic effect Yes/No [2, 9]: Yes; log reductions (180 sec) due to Simultaneous action of 4-HBITC & heat [2, 10]: 4.38 log; Synergistic effect Yes/No [2, 10]: Yes; log reductions (180 sec) due to Simultaneous action of 4-HBITC & heat [2, 11]: 5.25 log; Synergistic effect Yes/No [2, 11]: Yes; log reductions (180 sec) due to Simultaneous action of 4-HBITC & heat [2, 12]: 1.56 log; Synergistic effect Yes/No [2, 12]: No; log reductions (180 sec) due to Simultaneous action of 4-HBITC & heat [2, 13]: 4.38 log; Synergistic effect Yes/No [2, 13]: Yes; log reductions (180 sec) due to Simultaneous action of 4-HBITC & heat [2, 14]: 4.38 log; Synergistic effect Yes/No [2, 14]: Yes

— US20130280388A1, “Solid Food Products and Methods of Their Preservation” (priority 2012, published 2013)
